Reference: patent US12522595B2, “Bicyclic ether O-glycoprotein-2-acetamido-2-deoxy-3-D-glucopyranosidase inhibitors” (BIOGEN MA INC., priority 2019, dated 2026)

Molecular target: T1, Recombinant full length human OGA enzyme (Homo sapiens, UniProt O60502)
T1 construct: Recombinant full length human OGA enzyme was purchased from Origene; purchased Origene
T1 sequence (O60502 1-916): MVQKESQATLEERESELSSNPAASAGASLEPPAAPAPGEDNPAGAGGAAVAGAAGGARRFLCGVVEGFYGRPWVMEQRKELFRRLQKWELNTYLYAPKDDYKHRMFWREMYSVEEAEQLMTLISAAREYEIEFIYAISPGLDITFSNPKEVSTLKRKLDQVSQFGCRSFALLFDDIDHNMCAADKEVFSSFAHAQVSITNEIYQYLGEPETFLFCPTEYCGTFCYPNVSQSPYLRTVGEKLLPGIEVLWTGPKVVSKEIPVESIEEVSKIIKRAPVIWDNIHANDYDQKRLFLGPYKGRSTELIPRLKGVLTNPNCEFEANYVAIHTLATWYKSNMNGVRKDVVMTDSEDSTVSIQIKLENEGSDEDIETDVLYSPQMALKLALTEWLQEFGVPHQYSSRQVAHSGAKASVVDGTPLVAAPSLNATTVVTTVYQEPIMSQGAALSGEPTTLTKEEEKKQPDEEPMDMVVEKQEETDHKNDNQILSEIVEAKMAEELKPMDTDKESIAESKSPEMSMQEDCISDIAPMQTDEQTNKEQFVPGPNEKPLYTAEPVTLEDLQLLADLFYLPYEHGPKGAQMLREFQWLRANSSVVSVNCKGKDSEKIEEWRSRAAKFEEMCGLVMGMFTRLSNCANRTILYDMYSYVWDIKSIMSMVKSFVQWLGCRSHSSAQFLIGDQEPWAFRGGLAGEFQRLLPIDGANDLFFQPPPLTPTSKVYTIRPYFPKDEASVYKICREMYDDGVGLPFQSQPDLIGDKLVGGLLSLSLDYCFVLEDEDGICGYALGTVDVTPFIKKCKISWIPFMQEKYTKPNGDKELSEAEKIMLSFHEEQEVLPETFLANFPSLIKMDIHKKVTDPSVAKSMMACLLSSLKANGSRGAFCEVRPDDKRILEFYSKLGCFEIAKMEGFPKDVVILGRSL
Experiment: OGA enzyme inhibition biochemical assay
Conditions: 1 nM OGA, 100 μM 4-MUGlcNAc (Km), pH 6.4, 90 minutes at room temperature, 10-point dose-response from 20 μM
Protocol: N-(5-(((2S,4R)-4-([1,2,4]triazolo[4,3-a]pyrazin-3-yloxy)-2-methylpyrrolidin-1-yl)methyl)-4-fluorothiazol-2-yl)acetamide: The title compound was prepared in an analogous manner as Example 172 from 3-bromo-[1,2,4]triazolo[4,3-a]pyrazine. LCMS (ESI): [M+H] 392. ^1H NMR (600 MHz, CHLOROFORM-d) δ 10.75 (br s, 1H), 9.04 (s, 1H), 9.03 (s, 1H), 7.24 (s, 1H), 4.99-5.06 (m, 1H), 4.01 (d, J=14.49 Hz, 1H), 3.64 (d, J=14.67 Hz, 1H), 3.40 (d, J=11.55 Hz, 1H), 2.75 (dd, J=5.78, 11.46 Hz, 1H), 2.61-2.72 (m, 2H), 2.32 (s, 4H), 1.84-1.92 (m, 1H), 1.30 (d, J=5.87 Hz, 4H). ^19F NMR (565 MHz, CHLOROFORM-d) 6-115.92 (br s, 1F). OGA Enzyme Inhibition Biochemical Assay
Recombinant full length human OGA enzyme was purchased from Origene. 4-MUGlCNAc substrate was purchased from Sigma. All other reagents were purchased from Sigma or Fisher. Assay buffer consists of the McIlvaine buffer system, pH 6.4 (0.2M Na2HPO4 mixed with 0.1M citric acid) and 0.01% BSA. Reactions consist of 1 nM OGA, 100 μM 4-MUGlcNAc (Km), and compound in a final volume of 10 μl. Reactions were incubated for 90 minutes at room temperature and quenched with 40 μl of 3M glycine, pH 10 and read on a Perkin Elmer Envision plate reader (Ex: 355 nm/Em: 460 nm). Compounds were tested with a 10-point dose-response starting from 20 μM with a 4-fold dilution. Data, as presented in Table 1 below, was fit using GraphPad Prism using a 4-parameter fit with variable slope.

Structure (SMILES) | IC50 [nM]
CC(=O)Nc1nc(F)c(CN2C[C@H](Oc3ncnc4ncccc34)C[C@@H]2C)s1 [Example 119, N-(4-fluoro-5-(((2S,4R)-2-methyl-4-(pyrido[2,3-d]pyrimidin-4-yloxy)pyrrolidin-1-yl)methyl)thiazol-2-yl)acetamide] | 1.1
CC(=O)Nc1ncc(CN2C[C@H](Oc3nc4ccccc4cc3C#N)C[C@@H]2C)s1 [Example 37, N-(5-(((2S,4R)-4-((3-cyanoquinolin-2-yl)oxy)-2-methylpyrrolidin-1-yl)methyl)thiazol-2-yl)acetamide] | 16
CC(=O)Nc1ncc(CN2C[C@H](Oc3nccc4oc(C(N)=O)cc34)C[C@@H]2C)s1 [Example 25, 4-(((3R,5S)-1-((2-acetamidothiazol-5-yl)methyl)-5-methylpyrrolidin-3-yl)oxy)furo[3,2-c]pyridine-2-carboxamide] | 2.8
CC(=O)Nc1nc(F)c(CN2C[C@H](Oc3nccc4occc34)C[C@@H]2C)s1 [Example 70, N-(4-fluoro-5-(((2S,4R)-4-(furo[3,2-c]pyridin-4-yloxy)-2-methylpyrrolidin-1-yl)methyl)thiazol-2-yl)acetamide] | 1.2
CC(=O)Nc1nc(F)c(CN2C[C@H](Oc3cccc4nn(C)cc34)C[C@@H]2C)s1 [Example 84, N-(4-fluoro-5-(((2S,4R)-2-methyl-4-((2-methyl-2H-indazol-4-yl)oxy)pyrrolidin-1-yl)methyl)thiazol-2-yl)acetamide] | < 1
CC(=O)Nc1nc(F)c(CN2C[C@H](Oc3ccnc4cn(C)nc34)C[C@@H]2C)s1 [Example 134, N-(4-fluoro-5-(((2S,4R)-2-methyl-4-((2-methyl-2H-pyrazolo[4,3-b]pyridin-7-yl)oxy)pyrrolidin-1-yl)methyl)thiazol-2-yl)acetamide] | < 1
CC(=O)Nc1nc(F)c(CN2C[C@H](Oc3nccn4cc(C)nc34)C[C@@H]2C)s1 [Example 103, N-(4-fluoro-5-(((2S,4R)-2-methyl-4-((2-methylimidazo[1,2-a]pyrazin-8-yl)oxy)pyrrolidin-1-yl)methyl)thiazol-2-yl)acetamide] | < 1
CC(=O)Nc1ncc(CN2C[C@H](Oc3nc4ccccc4cc3C)C[C@@H]2C)s1 [Example 29, N-(5-(((2S,4R)-2-methyl-4-((3-methylquinolin-2-yl)oxy)pyrrolidin-1-yl)methyl)thiazol-2-yl)acetamide] | 5.5
CC(=O)Nc1ncc(CN2C[C@H](Oc3cnc4cc(F)c(F)cc4n3)C[C@@H]2C)s1 [Example 9, N-(5-(((2S,4R)-4-((6,7-difluoroquinoxalin-2-yl)oxy)-2-methylpyrrolidin-1-yl)methyl)thiazol-2-yl)acetamide] | < 1
CC(=O)Nc1ncc(CN2C[C@H](Oc3cnc4nc(C)oc4c3)C[C@@H]2C)s1 [Example 168, N-(5-(((2S,4R)-2-Methyl-4-((2-methyloxazolo[4,5-b]pyridin-6-yl)oxy)pyrrolidin-1-yl)methyl)thiazol-2-yl)acetamide] | < 1
CC(=O)Nc1nc(F)c(CN2C[C@H](Oc3ccc4nccn4n3)C[C@@H]2C)s1 [Example 108, N-(4-fluoro-5-(((2S,4R)-4-(imidazo[1,2-b]pyridazin-6-yloxy)-2-methylpyrrolidin-1-yl)methyl)thiazol-2-yl)acetamide] | < 1
CC(=O)Nc1nc(F)c(CN2C[C@H](Oc3nc4ncccc4o3)C[C@@H]2C)s1 [Example 158, N-(4-fluoro-5-(((2S,4R)-2-methyl-4-(oxazolo[4,5-b]pyridin-2-yloxy)pyrrolidin-1-yl)methyl)thiazol-2-yl)acetamide] | < 1
CC(=O)Nc1ncc(CN2C[C@H](Oc3ccn4ccnc4c3)C[C@@H]2C)s1 [Example 42, N-(5-(((2S,4R)-4-(imidazo[1,2-a]pyridin-7-yloxy)-2-methylpyrrolidin-1-yl)methyl)thiazol-2-yl)acetamide] | < 1

Results, then the compound that gave them:

IC50 [nM] | Structure (SMILES)
< 1 | CC(=O)Nc1nc(F)c(CN2C[C@H](Oc3nc4c(F)cccc4o3)C[C@@H]2C)s1 [Example 127, N-(4-fluoro-5-(((2S,4R)-4-((4-fluorobenzo[d]oxazol-2-yl)oxy)-2-methylpyrrolidin-1-yl)methyl)thiazol-2-yl)acetamide]
< 1 | CC(=O)Nc1nc(F)c(CN2C[C@H](Oc3ncc4ccn(C)c4n3)C[C@@H]2C)s1 [Example 110, N-(4-fluoro-5-(((2S,4R)-2-methyl-4-((7-methyl-7H-pyrrolo[2,3-d]pyrimidin-2-yl)oxy)pyrrolidin-1-yl)methyl)thiazol-2-yl)acetamide]
< 1 | CC(=O)Nc1nc(F)c(CN2C[C@H](Oc3nccc4ncnn34)C[C@@H]2C)s1 [Example 145, N-(5-(((2S,4R)-4-([1,2,4]triazolo[1,5-c]pyrimidin-5-yloxy)-2-methylpyrrolidin-1-yl)methyl)-4-fluorothiazol-2-yl)acetamide]
< 1 | COc1ccc2ccc(O[C@@H]3C[C@H](C)N(Cc4cnc(NC(C)=O)s4)C3)nc2c1 [Example 79, N-(5-(((2S,4R)-4-((7-methoxyquinolin-2-yl)oxy)-2-methylpyrrolidin-1-yl)methyl)thiazol-2-yl)acetamide]
< 1 | CC(=O)Nc1nc(F)c(CN2C[C@H](Oc3cnc4nncn4c3)C[C@@H]2C)s1 [Example 165, N-(5-(((2S,4R)-4-([1,2,4]triazolo[4,3-a]pyrimidin-6-yloxy)-2-methylpyrrolidin-1-yl)methyl)-4-fluorothiazol-2-yl)acetamide]
< 1 | COc1ccc2ccc(O[C@@H]3C[C@H](C)N(Cc4cnc(NC(C)=O)s4)C3)nc2n1 [Example 166, N-(5-(((2S,4R)-4-((7-methoxy-1,8-naphthyridin-2-yl)oxy)-2-methylpyrrolidin-1-yl)methyl)thiazol-2-yl)acetamide]
< 1 | CC(=O)Nc1nc(F)c(CN2C[C@H](Oc3ccc4cnccc4n3)C[C@@H]2C)s1 [Example 120, N-(5-(((2S,4R)-4-((1,6-naphthyridin-2-yl)oxy)-2-methylpyrrolidin-1-yl)methyl)-4-fluorothiazol-2-yl)acetamide]
< 1 | CC(=O)Nc1ncc(CN2C[C@H](Oc3ncnc4cc(OC(F)F)ccc34)C[C@@H]2C)s1 [Example 14, N-(5-(((2S,4R)-4-((7-(difluoromethoxy)quinazolin-4-yl)oxy)-2-methylpyrrolidin-1-yl)methyl)thiazol-2-yl)acetamide]
< 1 | CC(=O)Nc1ncc(CN2C[C@H](Oc3ccc4sccc4n3)C[C@@H]2C)s1 [Example 4, N-(5-(((2S,4R)-2-methyl-4-(thieno[3,2-b]pyridin-5-yloxy)pyrrolidin-1-yl)methyl)thiazol-2-yl)acetamide]
< 1 | CC(=O)Nc1nc(F)c(CN2C[C@H](Oc3cccc4nnnn34)C[C@@H]2C)s1 [Example 147, N-(4-fluoro-5-(((2S,4R)-2-methyl-4-(tetrazolo[1,5-a]pyridin-5-yloxy)pyrrolidin-1-yl)methyl)thiazol-2-yl)acetamide]
< 1 | CC(=O)Nc1nc(F)c(CN2C[C@H](Oc3cccn4nccc34)C[C@@H]2C)s1 [Example 141, N-(4-fluoro-5-(((2S,4R)-2-methyl-4-(pyrazolo[1,5-a]pyridin-4-yloxy)pyrrolidin-1-yl)methyl)thiazol-2-yl)acetamide]
< 1 | CC(=O)Nc1nc(F)c(CN2C[C@H](Oc3nccn4cnnc34)C[C@@H]2C)s1 [Example 101, N-(5-(((2S,4R)-4-([1,2,4]triazolo[4,3-a]pyrazin-8-yloxy)-2-methylpyrrolidin-1-yl)methyl)-4-fluorothiazol-2-yl)acetamide]
